Measured values reported in ChEMBL document CHEMBL1201862, “PubChem BioAssay data set” (2004).
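Growth conditions: 96-well plates. Treatment: test compound, 48 hours, 5 concentrations. Analysis: linear interpolation between bracketing concentrations; unreached endpoints set to highest concentration. At the GI50, growth is halved.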 Calls of active or inactive are those of the source. Cut-off read from the data, not from the text of the source: active = GI50 up to about 1.1 µM and inactive = higher.

Legend:
Test in all cases: NCI anticancer screen, dose series, 48 h
786-0 = tested on: 786-0
A498 = tested on: A498
A549 = tested on: A549
BT-549 = tested on: BT-549
CAKI-1 = tested on: CAKI-1
CCRF-CEM = tested on: CCRF-CEM
COLO 205 = tested on: COLO 205
DU-145 = tested on: DU-145
EKVX = tested on: EKVX
HCC 2998 = tested on: HCC 2998
HCT-116 = tested on: HCT-116
HCT-15 = tested on: HCT-15
HL-60 = tested on: HL-60
HOP-62 = tested on: HOP-62
HOP-92 = tested on: HOP-92
HT-29 = tested on: HT-29
Hs-578T = tested on: Hs-578T
IGROV-1 = tested on: IGROV-1
K562 = tested on: K562
KM12 = tested on: KM12
LOX IMVI = tested on: LOX IMVI
M14 = tested on: M14
MCF7 = tested on: MCF7
MDA-MB-231 = tested on: MDA-MB-231
MDA-MB-435 = tested on: MDA-MB-435
MDA-N = tested on: MDA-N
MOLT-4 = tested on: MOLT-4
Malme-3M = tested on: Malme-3M
NCI-H226 = tested on: NCI-H226
NCI-H23 = tested on: NCI-H23
NCI-H460 = tested on: NCI-H460
NCI/ADR-RES = tested on: NCI/ADR-RES
OVCAR-3 = tested on: OVCAR-3
OVCAR-4 = tested on: OVCAR-4
OVCAR-5 = tested on: OVCAR-5
OVCAR-8 = tested on: OVCAR-8
PC-3 = tested on: PC-3
RPMI-8226 = tested on: RPMI-8226
RXF 393 = tested on: RXF 393
SF-268 = tested on: SF-268
SF-295 = tested on: SF-295
SF-539 = tested on: SF-539
SK-MEL-28 = tested on: SK-MEL-28
SK-MEL-2 = tested on: SK-MEL-2
SK-MEL-5 = tested on: SK-MEL-5
SK-OV-3 = tested on: SK-OV-3
SN12C = tested on: SN12C
SNB-19 = tested on: SNB-19
SNB-75 = tested on: SNB-75
SR = tested on: SR
SW-620 = tested on: SW-620
T47D = tested on: T47D
U-251 = tested on: U-251
UACC-257 = tested on: UACC-257
UACC-62 = tested on: UACC-62
UO-31 = tested on: UO-31
ACHN = tested on: ACHN
NCI-H522 = tested on: NCI-H522
TK-10 = tested on: TK-10

CCOC(=O)c1cc(C2CCN(CC(C)CC)C2=S)c(-c2cc(C)no2)[nH]1 (configuration not stated)
GI50 (786-0): > 100 µM (inactive) | GI50 (A498): > 100 µM (inactive) | GI50 (A549): 51.4 µM (inactive) | GI50 (BT-549): 83.9 µM (inactive) | GI50 (CAKI-1): > 100 µM (inactive) | GI50 (CCRF-CEM): > 100 µM (inactive) | GI50 (COLO 205): 37.4 µM (inactive) | GI50 (DU-145): > 100 µM (inactive) | GI50 (EKVX): 14.7 µM (inactive) | GI50 (HCC 2998): > 100 µM (inactive) | GI50 (HCT-116): 88.9 µM (inactive) | GI50 (HCT-15): > 100 µM | GI50 (HL-60): 35 µM (inactive) | GI50 (HOP-62): > 100 µM (inactive) | GI50 (HOP-92): 38 µM (inactive) | GI50 (HT-29): 41.7 µM (inactive) | GI50 (Hs-578T): 89.7 µM (inactive) | GI50 (IGROV-1): > 100 µM (inactive) | GI50 (K562): 77.4 µM (inactive) | GI50 (KM12): 49.2 µM (inactive) | GI50 (LOX IMVI): 41.8 µM (inactive) | GI50 (M14): > 100 µM (inactive) | GI50 (MCF7): 89.3 µM (inactive) | GI50 (MDA-MB-231): 29.6 µM (inactive) | GI50 (MDA-MB-435): > 100 µM (inactive) | GI50 (MDA-N): > 100 µM (inactive) | GI50 (MOLT-4): 44.1 µM (inactive) | GI50 (Malme-3M): > 100 µM (inactive) | GI50 (NCI-H226): 55.3 µM (inactive) | GI50 (NCI-H23): > 100 µM (inactive) | GI50 (NCI-H460): > 100 µM (inactive) | GI50 (NCI/ADR-RES): 41.3 µM (inactive) | GI50 (OVCAR-3): > 100 µM (inactive) | GI50 (OVCAR-4): > 100 µM (inactive) | GI50 (OVCAR-5): > 100 µM (inactive) | GI50 (OVCAR-8): 68.4 µM (inactive) | GI50 (PC-3): 41.6 µM (inactive) | GI50 (RPMI-8226): 66.1 µM (inactive) | GI50 (RXF 393): > 100 µM (inactive) | GI50 (SF-268): 69.3 µM (inactive) | GI50 (SF-295): > 100 µM (inactive) | GI50 (SF-539): > 100 µM (inactive) | GI50 (SK-MEL-28): > 100 µM (inactive) | GI50 (SK-MEL-2): > 100 µM (inactive) | GI50 (SK-MEL-5): 48.4 µM (inactive) | GI50 (SK-OV-3): > 100 µM (inactive) | GI50 (SN12C): > 100 µM (inactive) | GI50 (SNB-19): 46.1 µM (inactive) | GI50 (SNB-75): 57.9 µM (inactive) | GI50 (SR): 56.5 µM (inactive) | GI50 (SW-620): > 100 µM (inactive) | GI50 (T47D): 50.4 µM (inactive) | GI50 (U-251): > 100 µM (inactive) | GI50 (UACC-257): > 100 µM (inactive) | GI50 (UACC-62): 72.3 µM (inactive) | GI50 (UO-31): 17.3 µM (inactive)

CC(=O)OCCn1c(Cc2ccc([N+](=O)[O-])cc2)nn(C(C)=O)c1=O
GI50 (786-0): > 100 µM (inactive) | GI50 (A498): > 100 µM (inactive) | GI50 (A549): > 100 µM (inactive) | GI50 (ACHN): > 100 µM (inactive) | GI50 (BT-549): > 100 µM (inactive) | GI50 (CAKI-1): > 100 µM (inactive) | GI50 (CCRF-CEM): > 100 µM (inactive) | GI50 (COLO 205): > 100 µM (inactive) | GI50 (DU-145): > 100 µM (inactive) | GI50 (EKVX): > 100 µM (inactive) | GI50 (HCC 2998): > 100 µM (inactive) | GI50 (HCT-116): > 100 µM (inactive) | GI50 (HCT-15): > 100 µM | GI50 (HL-60): > 100 µM (inactive) | GI50 (HOP-92): > 100 µM (inactive) | GI50 (HT-29): > 100 µM (inactive) | GI50 (Hs-578T): > 100 µM (inactive) | GI50 (IGROV-1): > 100 µM (inactive) | GI50 (K562): > 100 µM (inactive) | GI50 (KM12): > 100 µM (inactive) | GI50 (LOX IMVI): > 100 µM (inactive) | GI50 (M14): > 100 µM (inactive) | GI50 (MCF7): > 100 µM (inactive) | GI50 (MDA-MB-231): > 100 µM (inactive) | GI50 (MDA-MB-435): > 100 µM (inactive) | GI50 (MDA-N): > 100 µM (inactive) | GI50 (MOLT-4): > 100 µM (inactive) | GI50 (Malme-3M): > 100 µM (inactive) | GI50 (NCI-H226): > 100 µM (inactive) | GI50 (NCI-H23): > 100 µM (inactive) | GI50 (NCI-H460): > 100 µM (inactive) | GI50 (NCI-H522): > 100 µM (inactive) | GI50 (NCI/ADR-RES): > 100 µM (inactive) | GI50 (OVCAR-3): > 100 µM (inactive) | GI50 (OVCAR-4): > 100 µM (inactive) | GI50 (OVCAR-5): > 100 µM (inactive) | GI50 (OVCAR-8): > 100 µM (inactive) | GI50 (PC-3): > 100 µM (inactive) | GI50 (RPMI-8226): > 100 µM (inactive) | GI50 (SF-268): > 100 µM (inactive) | GI50 (SF-295): > 100 µM (inactive) | GI50 (SF-539): > 100 µM (inactive) | GI50 (SK-MEL-28): > 100 µM (inactive) | GI50 (SK-MEL-2): > 100 µM (inactive) | GI50 (SK-MEL-5): > 100 µM (inactive) | GI50 (SK-OV-3): > 100 µM (inactive) | GI50 (SN12C): > 100 µM (inactive) | GI50 (SNB-19): > 100 µM (inactive) | GI50 (SR): > 100 µM (inactive) | GI50 (SW-620): > 100 µM (inactive) | GI50 (T47D): > 100 µM (inactive) | GI50 (TK-10): > 100 µM (inactive) | GI50 (U-251): > 100 µM (inactive) | GI50 (UACC-257): > 100 µM (inactive) | GI50 (UACC-62): > 100 µM (inactive) | GI50 (UO-31): > 100 µM (inactive)
